Assay results published in patent US20260007601A1, “IONIZABLE CATIONIC LIPID COMPOUND AND COMPOSITION FOR DELIVERING NUCLEIC ACID AND USE THEREOF” (BEIJING YOUCAREKECHUANG PHARMACEUTICAL TECHNOLOGY CO., LTD., priority 2023, published 2026).

What was measured:
[1] = Particle size and polydispersity index (PDI) of nanolipid particles, dynamic light scattering; assay type: physicochemical; details: LNP formulation prepared from the named cationic lipid, 25° C
Experimental: The particle size and polydispersity index (PDI) were determined by dynamic light scattering method using a Malvern laser particle size analyzer. 10 μL of liposome solution was diluted to 1 mL with RNase-free deionized water and added to a sample pool. Each sample was measured three times. The measurement conditions were: 90° scattering angle, 25° C.

[2] = Encapsulation rate, drug loading concentration and total RNA concentration detection (RiboGreen); assay type: physicochemical; details: for Drug loading concentration / Encapsulation rate / Total RNA concentration: LNP formulation of the named lipid; for encapsulation rate higher than that of ALC-0315 / encapsulation rate higher than that of HHMA / encapsulation rate higher than that of SM-102 / encapsulation rate higher than that of YK-009 / encapsulation rate higher than that of compound 21 / encapsulation rate higher than that of compound 23: difference of rates
293T cells [3] = assay: Fluorescence detection of Fluc-mRNA (cell transfection efficiency of LNP formulations); assay type: cell-based; details: for Relative light unit (RLU): LNP containing 0.3 μg Fluc-mRNA, 24 hours; for Multiples of values that equivalent to YK-201: RLU of YK-201 / RLU of the named lipid; for Multiples of values that equivalent to YK-202: RLU of YK-202 / RLU of the named lipid; for Multiples of values that equivalent to YK-209: RLU of YK-209 / RLU of the named lipid; for Ratio relative to SM-102: RLU of the named lipid / RLU of SM-102, times that of SM-102
Summary of the method: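 293T cells at 10,000 per well, adhered overnight, then given LNPs carrying 0.3 μg Fluc-mRNA (cationic:neutral:structured:polymer-conjugated lipid 49:10:39.5:1.5 molar). After 24 h, luciferase signal read with luciferase kit reagents on an IVIS imaging system as transfection efficiency.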

293T cells [4] = assay: Cell survival rate assay (CCK-8); assay type: cell-based; details: for Cell survival rate: LNP containing 1.5 μg Fluc-mRNA, 24 hours, CCK-8; for cell survival rate higher than that of ALC-0315 / cell survival rate higher than that of HHMA / cell survival rate higher than that of Lipofectamine 3000 / cell survival rate higher than that of SM-102 / cell survival rate higher than that of compound 21 / cell survival rate higher than that of compound 23: difference of rates
Summary of the method: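 293T cells seeded at 10,000 per well and grown overnight, then exposed for 24 h to LNPs (cationic/neutral/structured/PEG lipids 49:10:39.5:1.5) carrying 1.5 μg Fluc-mRNA, or Lipofectamine 3000. Viability read by CCK-8, 1 h incubation, absorbance at 450 nm.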

female BALB/C mice = assay: Mouse in vivo imaging of Fluc-mRNA LNP formulations; parameters: average radiation intensity (mRNA expression): unit not given here; details: for average radiation intensity (mRNA expression): 10 μg Fluc-mRNA LNP intramuscularly; for mRNA expression level in mice can reach, times that of ALC-0315 / mRNA expression level in mice can reach, times that of HHMA / mRNA expression level in mice can reach, times that of SM-102 / mRNA expression level in mice can reach, times that of compound 21 / mRNA expression level in mice can reach, times that of compound 23: time point not stated
Summary of the method: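 Female BALB/C mice (4–6 weeks, 17–19 g) received LNP carrying 10 μg Fluc-mRNA intramuscularly. Imaging substrate given intraperitoneally at 6 h, 24 h, 48 h and 7 d; after 5 min free movement, average radiance read by IVIS Spectrum imaging.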

CCCCCCCCCCCOC(=O)CCCCCN(CCCCCCCC(=O)OC(CCCCCCC)CCCCCCC)CCN(C)CCO [YK-206]
PDI [1]: 18.8%
Particle size [1]: 216 nm
drug loading concentration, times that of ALC-0315 [2]: 1.46 times
drug loading concentration, times that of HHMA [2]: 1.24 times
drug loading concentration, times that of SM-102 [2]: 1.50 times
drug loading concentration, times that of YK-009 [2]: 1.42 times
drug loading concentration, times that of compound 21 [2]: 1.69 times
drug loading concentration, times that of compound 23 [2]: 1.84 times
total RNA concentration, times that of ALC-0315 [2]: 1.12 times
total RNA concentration, times that of HHMA [2]: 1.10 times
total RNA concentration, times that of SM-102 [2]: 1.18 times
total RNA concentration, times that of YK-009 [2]: 1.08 times
total RNA concentration, times that of compound 21 [2]: 1.36 times
total RNA concentration, times that of compound 23 [2]: 1.28 times
Drug loading concentration [2]: 38.09 µg/mL
Encapsulation rate [2]: 91.4%
Total RNA concentration [2]: 41.69 µg/mL
encapsulation rate higher than that of ALC-0315 [2]: 28.60%
encapsulation rate higher than that of HHMA [2]: 30.90%
encapsulation rate higher than that of SM-102 [2]: 29.10%
encapsulation rate higher than that of YK-009 [2]: 28.40%
encapsulation rate higher than that of compound 21 [2]: 33.60%
encapsulation rate higher than that of compound 23 [2]: 36.20%
RLU / cell transfection efficiency, times that of ALC-0315 (293T cells [3]; Fluc-mRNA LNP): 9 times
RLU / cell transfection efficiency, times that of HHMA (293T cells [3]; Fluc-mRNA LNP): 10 times
RLU / cell transfection efficiency, times that of Lipofectamine 3000 (293T cells [3]; Fluc-mRNA LNP): 17 times
RLU / cell transfection efficiency, times that of YK-009 (293T cells [3]; Fluc-mRNA LNP): 4 times
RLU / cell transfection efficiency, times that of compound 21 (293T cells [3]; Fluc-mRNA LNP): 14 times
RLU / cell transfection efficiency, times that of compound 23 (293T cells [3]; Fluc-mRNA LNP): 15 times
fluorescence absorption value / cell transfection efficiency, times that of YK-205 (293T cells [3]; Fluc-mRNA LNP): 20.29 times
Relative light unit (RLU) (293T cells [3]): 21058746 RLU
Multiples of values that equivalent to YK-201 (293T cells [3]): 1.35
Multiples of values that equivalent to YK-202 (293T cells [3]): 1.42
Multiples of values that equivalent to YK-209 (293T cells [3]): 1.28
Cell survival rate (293T cells [4]): 74.57%
cell survival rate higher than that of ALC-0315 (293T cells [4]): 24.61%
cell survival rate higher than that of HHMA (293T cells [4]): 9.01%
cell survival rate higher than that of Lipofectamine 3000 (293T cells [4]): 51.52%
cell survival rate higher than that of SM-102 (293T cells [4]): 6.02%
cell survival rate higher than that of compound 21 (293T cells [4]): 5.55%
cell survival rate higher than that of compound 23 (293T cells [4]): 4.47%
average radiation intensity (mRNA expression) (female BALB/C mice; 6 h): 2068900
average radiation intensity (mRNA expression) (female BALB/C mice; 24 h): 1553050
average radiation intensity (mRNA expression) (female BALB/C mice; 48 h): 500150
average radiation intensity (mRNA expression) (female BALB/C mice; 7 d): 23015
mRNA expression level in mice can reach, times that of ALC-0315 (female BALB/C mice): 13 times
mRNA expression level in mice can reach, times that of HHMA (female BALB/C mice): 16 times
mRNA expression level in mice can reach, times that of SM-102 (female BALB/C mice): 16 times
mRNA expression level in mice can reach, times that of compound 21 (female BALB/C mice): 16 times
mRNA expression level in mice can reach, times that of compound 23 (female BALB/C mice): 16 times

CCCCCCCCCCOC(=O)CCCN(CCCCCC(=O)OCC(CCCCCCCC)CCCCCCCC)CCN(C)CCO [YK-207, 2-octyldecyl-6-(2-((2-(2-hydroxyethyl(methyl)amino)ethyl)(4-oxo-4-((decyloxy)butyl)amino) hexanoate]
PDI [1]: 18.9%
Particle size [1]: 192 nm
drug loading concentration, times that of ALC-0315 [2]: 1.52 times
drug loading concentration, times that of HHMA [2]: 1.29 times
drug loading concentration, times that of SM-102 [2]: 1.56 times
drug loading concentration, times that of YK-009 [2]: 1.47 times
drug loading concentration, times that of compound 21 [2]: 1.75 times
drug loading concentration, times that of compound 23 [2]: 1.91 times
total RNA concentration, times that of ALC-0315 [2]: 1.18 times
total RNA concentration, times that of HHMA [2]: 1.15 times
total RNA concentration, times that of SM-102 [2]: 1.24 times
total RNA concentration, times that of YK-009 [2]: 1.13 times
total RNA concentration, times that of compound 21 [2]: 1.42 times
total RNA concentration, times that of compound 23 [2]: 1.34 times
Drug loading concentration [2]: 39.60 µg/mL
Encapsulation rate [2]: 90.8%
Total RNA concentration [2]: 43.63 µg/mL
encapsulation rate higher than that of ALC-0315 [2]: 28.00%
encapsulation rate higher than that of HHMA [2]: 30.30%
encapsulation rate higher than that of SM-102 [2]: 28.50%
encapsulation rate higher than that of YK-009 [2]: 27.80%
encapsulation rate higher than that of compound 21 [2]: 33.00%
encapsulation rate higher than that of compound 23 [2]: 35.60%
RLU / cell transfection efficiency, times that of ALC-0315 (293T cells [3]; Fluc-mRNA LNP): 9 times
RLU / cell transfection efficiency, times that of HHMA (293T cells [3]; Fluc-mRNA LNP): 10 times
RLU / cell transfection efficiency, times that of Lipofectamine 3000 (293T cells [3]; Fluc-mRNA LNP): 17 times
RLU / cell transfection efficiency, times that of YK-009 (293T cells [3]; Fluc-mRNA LNP): 4 times
RLU / cell transfection efficiency, times that of compound 21 (293T cells [3]; Fluc-mRNA LNP): 14 times
RLU / cell transfection efficiency, times that of compound 23 (293T cells [3]; Fluc-mRNA LNP): 15 times
cell transfection efficiency, times that of YK-221 (293T cells [3]; Fluc-mRNA LNP): 960.71 times
fluorescence absorption value / cell transfection efficiency, times that of YK-220 (293T cells [3]; Fluc-mRNA LNP): 124.13 times
Relative light unit (RLU) (293T cells [3]): 20878758 RLU
Multiples of values that equivalent to YK-201 (293T cells [3]): 1.36
Multiples of values that equivalent to YK-202 (293T cells [3]): 1.43
Multiples of values that equivalent to YK-209 (293T cells [3]): 1.29
Cell survival rate (293T cells [4]): 73.88%
cell survival rate higher than that of ALC-0315 (293T cells [4]): 23.92%
cell survival rate higher than that of HHMA (293T cells [4]): 8.32%
cell survival rate higher than that of Lipofectamine 3000 (293T cells [4]): 50.83%
cell survival rate higher than that of SM-102 (293T cells [4]): 5.33%
cell survival rate higher than that of compound 21 (293T cells [4]): 4.86%
cell survival rate higher than that of compound 23 (293T cells [4]): 3.78%
average radiation intensity (mRNA expression) (female BALB/C mice; 6 h): 1974100
average radiation intensity (mRNA expression) (female BALB/C mice; 24 h): 1523040
average radiation intensity (mRNA expression) (female BALB/C mice; 48 h): 525800
average radiation intensity (mRNA expression) (female BALB/C mice; 7 d): 22896
mRNA expression level in mice can reach, times that of ALC-0315 (female BALB/C mice): 13 times
mRNA expression level in mice can reach, times that of HHMA (female BALB/C mice): 16 times
mRNA expression level in mice can reach, times that of SM-102 (female BALB/C mice): 16 times
mRNA expression level in mice can reach, times that of compound 21 (female BALB/C mice): 16 times
mRNA expression level in mice can reach, times that of compound 23 (female BALB/C mice): 16 times

CCCCCCCCCCCOC(=O)CCCCCN(CCCCCCCC(=O)OC(CCCCCCCC)CCCCCCCC)CCN(C)CCOC [YK-215]
PDI [1]: 20.8%
Particle size [1]: 219 nm
Drug loading concentration [2]: 29.30 µg/mL
Encapsulation rate [2]: 68.0%
Total RNA concentration [2]: 43.13 µg/mL
Relative light unit (RLU) (293T cells [3]): 981165 RLU
Multiples of values that equivalent to YK-201 (293T cells [3]): 29.03
Multiples of values that equivalent to YK-202 (293T cells [3]): 30.53
Multiples of values that equivalent to YK-209 (293T cells [3]): 21.46
Ratio relative to SM-102 (293T cells [3]): 0.59
Cell survival rate (293T cells [4]): 44.59%
average radiation intensity (mRNA expression) (female BALB/C mice; 6 h): 50564
average radiation intensity (mRNA expression) (female BALB/C mice; 24 h): 6815
average radiation intensity (mRNA expression) (female BALB/C mice; 48 h): 3640
average radiation intensity (mRNA expression) (female BALB/C mice; 7 d): 1020

CCCCCCCCCCOC(=O)CCCN(CCCCCC(=O)OCCC(CCCCCC)CCCCCC)CCOC(=O)SCCCN(C)C [YK-217, 3-hexylnonyl-11-(4-(decyloxy)-4-oxobutyl)-2-methyl-7-oxo-8-oxo-6-thio-2,11-diazaheptane-17-carboxylate]
PDI [1]: 17.9%
Particle size [1]: 210 nm
Drug loading concentration [2]: 42.19 µg/mL
Encapsulation rate [2]: 90.4%
Total RNA concentration [2]: 46.66 µg/mL
Relative light unit (RLU) (293T cells [3]): 71850 RLU
Multiples of values that equivalent to YK-201 (293T cells [3]): 396.42
Multiples of values that equivalent to YK-202 (293T cells [3]): 416.94
Multiples of values that equivalent to YK-209 (293T cells [3]): 293.09
Ratio relative to SM-102 (293T cells [3]): 0.04
Cell survival rate (293T cells [4]): 42.27%
average radiation intensity (mRNA expression) (female BALB/C mice; 6 h): 24585
average radiation intensity (mRNA expression) (female BALB/C mice; 24 h): 2650
average radiation intensity (mRNA expression) (female BALB/C mice; 48 h): 1024
average radiation intensity (mRNA expression) (female BALB/C mice; 7 d): 523
